Measured values reported in ChEMBL document CHEMBL4251612, “Naturally occurring Diels-Alder-type adducts from Morus nigra as potent inhibitors of Mycobacterium tuberculosis protein tyrosine phosphatase B” (Eur J Med Chem, 2018).
≈ marks a conversion by molar mass, not a printed value. Calls of active or inactive are those of the source. The rule behind the calls is not given here.

Assays:
[1] = biological target: T1, Phosphotyrosine protein phosphatase (Mycobacterium tuberculosis, UniProt A0A045ISB3); experiment: Inhibition of Mycobacterium tuberculosis PtpB using p-nitrophenyl phosphate as substrate preincubated for 10 mins followed by substrate addition measured every minute for 10 mins by UV-VIS spectrophotometric analysis
T1 sequence (A0A045ISB3 whole entry): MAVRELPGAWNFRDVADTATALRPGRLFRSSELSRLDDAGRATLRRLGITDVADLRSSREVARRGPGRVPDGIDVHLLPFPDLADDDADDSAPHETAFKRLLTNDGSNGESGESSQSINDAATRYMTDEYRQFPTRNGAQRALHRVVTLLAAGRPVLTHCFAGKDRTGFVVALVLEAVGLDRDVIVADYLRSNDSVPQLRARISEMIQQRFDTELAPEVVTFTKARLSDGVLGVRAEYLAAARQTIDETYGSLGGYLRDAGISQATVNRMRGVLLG

[2] = biological target: T2, Low molecular weight protein-tyrosine phosphatase A (Mycobacterium tuberculosis, UniProt P9WIA1); experiment: Inhibition of Mycobacterium tuberculosis PtpA using p-nitrophenyl phosphate as substrate preincubated for 10 mins followed by substrate addition measured every minute for 10 mins by UV-VIS spectrophotometric analysis
T2 sequence (P9WIA1 whole entry): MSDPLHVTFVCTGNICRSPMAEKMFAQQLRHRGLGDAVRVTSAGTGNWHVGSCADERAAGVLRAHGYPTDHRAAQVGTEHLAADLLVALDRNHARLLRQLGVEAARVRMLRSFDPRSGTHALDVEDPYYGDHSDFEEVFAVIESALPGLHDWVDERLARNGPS

[3] = biological target: T3, Tyrosine-protein phosphatase non-receptor type 1 (Homo sapiens, UniProt P18031); experiment: Inhibition of human PTP1B using p-nitrophenyl phosphate as substrate preincubated for 10 mins followed by substrate addition measured every minute for 10 mins by UV-VIS spectrophotometric analysis
T3 sequence (P18031 whole entry): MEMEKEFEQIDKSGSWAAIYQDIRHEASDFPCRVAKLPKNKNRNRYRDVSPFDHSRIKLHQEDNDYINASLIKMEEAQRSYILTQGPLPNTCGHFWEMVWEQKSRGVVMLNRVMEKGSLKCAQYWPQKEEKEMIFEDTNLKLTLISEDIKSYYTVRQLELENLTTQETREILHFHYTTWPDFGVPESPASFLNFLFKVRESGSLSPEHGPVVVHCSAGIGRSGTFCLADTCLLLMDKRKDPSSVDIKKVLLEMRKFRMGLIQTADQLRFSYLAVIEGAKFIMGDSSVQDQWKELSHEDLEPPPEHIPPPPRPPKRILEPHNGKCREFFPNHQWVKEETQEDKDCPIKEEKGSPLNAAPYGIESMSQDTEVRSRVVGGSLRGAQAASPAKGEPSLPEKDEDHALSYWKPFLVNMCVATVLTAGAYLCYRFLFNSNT

[4] = biological target: T4, Tyrosine-protein phosphatase non-receptor type 22 (Homo sapiens, UniProt Q9Y2R2); experiment: Inhibition of LYP (unknown origin) using p-nitrophenyl phosphate as substrate preincubated for 10 mins followed by substrate addition measured every minute for 10 mins by UV-VIS spectrophotometric analysis
T4 sequence (Q9Y2R2 whole entry): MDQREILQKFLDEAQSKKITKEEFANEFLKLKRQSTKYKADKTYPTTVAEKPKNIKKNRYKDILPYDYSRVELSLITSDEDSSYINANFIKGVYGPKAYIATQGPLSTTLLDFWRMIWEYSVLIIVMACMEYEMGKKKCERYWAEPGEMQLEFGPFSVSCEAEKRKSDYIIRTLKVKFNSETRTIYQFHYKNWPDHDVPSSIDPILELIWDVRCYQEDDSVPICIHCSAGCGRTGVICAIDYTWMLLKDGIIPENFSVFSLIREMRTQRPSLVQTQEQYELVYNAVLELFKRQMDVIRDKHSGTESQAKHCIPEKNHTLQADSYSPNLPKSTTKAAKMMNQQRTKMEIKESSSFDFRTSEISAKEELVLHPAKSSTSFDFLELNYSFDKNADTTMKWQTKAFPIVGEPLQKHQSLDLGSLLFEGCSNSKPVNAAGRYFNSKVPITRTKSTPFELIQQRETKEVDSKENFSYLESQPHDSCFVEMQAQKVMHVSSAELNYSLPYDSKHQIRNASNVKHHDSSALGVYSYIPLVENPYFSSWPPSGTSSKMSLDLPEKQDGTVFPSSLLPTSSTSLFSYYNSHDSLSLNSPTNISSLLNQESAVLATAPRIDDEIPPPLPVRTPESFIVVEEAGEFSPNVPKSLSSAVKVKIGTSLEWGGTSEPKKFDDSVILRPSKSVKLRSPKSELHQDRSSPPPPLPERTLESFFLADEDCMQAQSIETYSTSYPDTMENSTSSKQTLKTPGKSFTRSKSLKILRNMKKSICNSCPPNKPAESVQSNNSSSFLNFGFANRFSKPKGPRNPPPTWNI

[5] = biological target: T5, Tyrosine-protein phosphatase non-receptor type 12 (Homo sapiens, UniProt Q05209); experiment: Inhibition of PTP-PEST (unknown origin) using p-nitrophenyl phosphate as substrate preincubated for 10 mins followed by substrate addition measured every minute for 10 mins by UV-VIS spectrophotometric analysis
T5 sequence (Q05209 whole entry): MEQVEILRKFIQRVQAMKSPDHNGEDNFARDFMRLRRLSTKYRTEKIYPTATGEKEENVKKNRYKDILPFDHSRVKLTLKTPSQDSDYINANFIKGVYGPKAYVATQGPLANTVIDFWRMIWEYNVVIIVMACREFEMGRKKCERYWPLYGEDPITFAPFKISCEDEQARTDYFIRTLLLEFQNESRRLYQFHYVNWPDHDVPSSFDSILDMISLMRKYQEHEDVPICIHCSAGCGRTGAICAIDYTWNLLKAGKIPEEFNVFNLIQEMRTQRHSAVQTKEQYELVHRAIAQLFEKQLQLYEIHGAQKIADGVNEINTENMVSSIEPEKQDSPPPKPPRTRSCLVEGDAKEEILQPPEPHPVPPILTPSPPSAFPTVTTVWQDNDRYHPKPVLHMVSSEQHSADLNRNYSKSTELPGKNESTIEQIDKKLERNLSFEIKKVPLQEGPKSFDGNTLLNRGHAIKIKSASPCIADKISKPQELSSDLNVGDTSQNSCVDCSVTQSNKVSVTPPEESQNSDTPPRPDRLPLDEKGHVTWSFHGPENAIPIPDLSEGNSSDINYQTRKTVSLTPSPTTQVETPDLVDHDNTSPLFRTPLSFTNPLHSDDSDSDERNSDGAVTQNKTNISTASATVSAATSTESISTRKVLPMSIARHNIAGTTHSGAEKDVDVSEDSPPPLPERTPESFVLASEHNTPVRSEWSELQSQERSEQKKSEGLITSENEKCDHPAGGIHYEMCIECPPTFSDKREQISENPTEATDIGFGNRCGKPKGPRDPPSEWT

[6] = biological target: T6, Phosphotyrosine protein phosphatase (Mycobacterium tuberculosis) (UniProt A0A045ISB3); experiment: Non-competitive inhibition of Mycobacterium tuberculosis PtpB using p-nitrophenyl phosphate as substrate up to 0.3 uM preincubated for 10 mins followed by substrate addition measured every minute for 10 mins by Michaelis-Menten plot analysis
T6 sequence (whole entry): T1 sequence (A0A045ISB3 whole entry)

[7] = biological target: T1, Phosphotyrosine protein phosphatase; experiment: Inhibition of Mycobacterium tuberculosis PtpB using p-nitrophenyl phosphate as substrate preincubated for 10 mins followed by substrate addition measured every minute for 10 mins by Michaelis-Menten plot analysis
[8] = biological target: T6, Phosphotyrosine protein phosphatase (Mycobacterium tuberculosis); experiment: Reversible inhibition of Mycobacterium tuberculosis PtpB using p-nitrophenyl phosphate as substrate assessed as enzyme recovery at 10 times IC50 preincubated for 10 mins followed by 100-fold dilution; design: scale not given: the % may be the effect or the level left
[9] = biological target: T3, Tyrosine-protein phosphatase non-receptor type 1; experiment: Non-competitive inhibition of human PTP1B using p-nitrophenyl phosphate as substrate up to 7 uM preincubated for 10 mins followed by substrate addition measured every minute for 10 mins by Michaelis-Menten plot analysis
[10] = Selectivity index, ratio of Ki for human PTP1B to Ki for Mycobacterium tuberculosis PtpB
[11] = biological target: T6, Phosphotyrosine protein phosphatase (Mycobacterium tuberculosis); experiment: Binding affinity to Mycobacterium tuberculosis PtpB assessed as Stern-Volmer quenching constant by UV-VIS spectrophotometric analysis
[12] = biological target: T1, Phosphotyrosine protein phosphatase; experiment: Binding affinity to Mycobacterium tuberculosis PtpB by UV-VIS spectrophotometric analysis
[13] = system: Mycobacterium tuberculosis; experiment: Antitubercular activity against Mycobacterium tuberculosis H37Ra ATCC 25177 after 7 days by resazurin microtiter assay; assay type: functional; settings: H37Ra ATCC 25177, 168 h
[14] = Cytotoxicity against human THP1 cells after 72 hrs by MTT assay; assay type: cell-based; settings: THP-1 cells
[15] = system: Mycobacterium tuberculosis; experiment: Antitubercular activity against Mycobacterium tuberculosis H37Ra ATCC 25177 infected in human THP1 cells assessed as reduction in CFU at 14.4 uM after 72 hrs relative to control; assay type: functional; settings: H37Ra ATCC 25177, THP-1, 72 h, read-out: GI
[16] = biological target: T6, Phosphotyrosine protein phosphatase (Mycobacterium tuberculosis); experiment: Time independent inhibition of Mycobacterium tuberculosis PtpB at 0.2 uM pre-incubated for 0 to 10 mins before p-nitrophenyl phosphate substrate addition
[17] = biological target: T6, Phosphotyrosine protein phosphatase (Mycobacterium tuberculosis); experiment: Binding affinity to Mycobacterium tuberculosis PtpB assessed as fluorescence quenching at 0.1 to 4.7 uM by spectropolarimetry
[18] = biological target: T6, Phosphotyrosine protein phosphatase (Mycobacterium tuberculosis); experiment: Binding affinity to Mycobacterium tuberculosis PtpB assessed as binding constant by fluorescence based assay
[19] = biological target: T1, Phosphotyrosine protein phosphatase; experiment: Binding affinity to Mycobacterium tuberculosis PtpB by fluorescence based assay
[20] = biological target: T1, Phosphotyrosine protein phosphatase; experiment: Binding affinity to Mycobacterium tuberculosis PtpB by ITC method
[21] = biological target: T6, Phosphotyrosine protein phosphatase (Mycobacterium tuberculosis); experiment: Ratio of Kd for binding affinity to Mycobacterium tuberculosis PtpB by fluorescence based assay to Kd for binding affinity to Mycobacterium tuberculosis PtpB by ITC method
[22] = biological target: T6, Phosphotyrosine protein phosphatase (Mycobacterium tuberculosis); experiment: Binding affinity to Mycobacterium tuberculosis PtpB assessed as sequence coverage level at 100 uM preincubated for 10 mins before trypsin addition by mass spectrometry based peptide mass fingerprint assay (reference value: 92%)
[23] = biological target: T6, Phosphotyrosine protein phosphatase (Mycobacterium tuberculosis); experiment: Binding affinity to Mycobacterium tuberculosis PtpB assessed as protection against proteolytic cleavage at 100 to 400 uM preincubated for 10 mins before trypsin addition by mass spectrometry
[24] = biological target: T7, Tyrosine-protein phosphatase non-receptor type 1 (Homo sapiens) (UniProt P18031); experiment: Binding affinity to human PTP1B assessed as protection against proteolytic cleavage at 400 uM preincubated for 10 mins before trypsin addition and measured after 2 hrs by mass spectrometry
T7 sequence (whole entry): T3 sequence (P18031 whole entry)

[25] = biological target: T6, Phosphotyrosine protein phosphatase (Mycobacterium tuberculosis); experiment: Binding affinity to Mycobacterium tuberculosis PtpB assessed as binding constant by ITC method

CC(C)=CCc1c(O)cc2c(c1O)C(=O)C[C@@H](c1cc3c(cc1O)OC(C)(C)C=C3)O2 [CUDRAFLAVANONE A]
IC50 [1]: 5.07 µM | IC50 [2]: 2.74 µM | IC50 [3]: 4.31 µM | IC50 [4]: 9.54 µM | IC50 [5]: 18.6 µM

Oc1cc(O)cc(/C=C/c2ccc(O)cc2O)c1 [OXYRESVERATROL]
IC50 [2]: 67.2 µM | IC50 [3]: 27.1 µM | IC50 [4]: 31.5 µM | IC50 [5]: > 100 µM

CC1=C[C@@H](c2c(O)ccc([C@@H]3CC(=O)c4c(O)cc(O)cc4O3)c2O)[C@H](C(=O)c2ccc(O)cc2O)[C@@H](c2ccc(O)cc2O)C1
IC50 [1]: 4.7 µM | IC50 [2]: 14 µM | IC50 [3]: 7.98 µM | IC50 [4]: 12.1 µM | IC50 [5]: 18.6 µM

CC(C)=CCc1c(-c2ccc(O)cc2O)oc2c([C@@H]3C=C(C)C[C@H](c4ccc(O)cc4O)[C@H]3C(=O)c3ccc(O)cc3O)c(O)cc(O)c2c1=O
IC50 [1]: 0.83 µM | IC50 [2]: 5.89 µM | IC50 [3]: 4.56 µM | IC50 [4]: 18.5 µM | IC50 [5]: 12.4 µM | inhibition [6]: Active | Ki [7]: 0.39 µM | Activity [8]: 40% | Ki [9]: 0.2 µM | Ratio Ki [10]: 26 | Ka [11]: 1 ×10⁶ /M | Kd [12]: 1 µM | MIC [13]: 32 µg/mL (≈ 46.2 µM) | CC50 at 72 h [14]: 33.8 µg/mL (≈ 48.8 µM) | inhibition of growth at 14.4 µM [15]: 61.3% | inhibition [16]: Active | Activity [17]: Active | Ka [18]: 1.4 ×10⁶ /M | Kd [19]: 0.7 µM | Kd [20]: 2.9 µM | Ratio [21]: 2 | Activity [22]: 90% | Activity [23]: Active | Activity [24]: inactive | Ka [25]: 3.5 ×10⁵ /M
